Tested on: MHC class I molecules of T1 cells (human lymphoma cell line 174×CEM.)
Assay: Effect on expression of MHC class I from T1 cells (flow cytometry, MFI)
Assay type: cell-based
Details: 3 days culture
Method: Effect on Expression of MHC Class I from T1 Cells (Human Lymphoma Cell Line 174×CEM.)
Using a 96-well flat bottom microplate, T1 cells (5.7×10^3 cells/200 μl/well) were cultured in an RPMI 1640 medium (Iwaki Glass) containing 10% fetal bovine serum (hereinafter abbreviated as FBS; Iruvine Scientific) in an incubator containing 5% carbon dioxide at 37° C. for 3 days, in the presence of a test compound having each concentration obtained by dilution at a common ratio route of 10 from 400 μM. After completion of the culture, the cells were stained with fluoroisothiocyanate-labeled mouse anti-human MHC class I monoclonal antibody (an antibody produced from the cell line W6/32 (ATCC No. CRL 1991)). The mean fluorescence intensity of the stained cells (hereinafter referred to as MFI) was measured using flow cytometry FACScan (BD). The obtained value was defined as an expression level of MHC class I molecules. A test compound concentration necessary for suppressing 20% of the expression level of MHC class I molecules (EC20 value) was calculated using the following formula (1).
[formula] • Eexp: MFI of cultured cells containing test compound after being stained with antibody • Cexp: MFI of cultured cells containing no test compounds after being stained with antibody

| Compound | EC20 (concentration necessary for suppressing 20% of the expression level of MHC class I molecules) [nM] |
| --- | --- |
| COc1ccc(-c2ccnc3nc(NC(=O)N[C@H](C(=O)NCc4ccccc4)C(C)C)nn23)cc1 [Example 089] | 210 |
| CCNC(=O)[C@@H](NC(=O)Nc1nc2nccc(-c3ccc(OC)cc3)n2n1)C(C)C [Example 090] | 400 |
| CCCCNC(=O)[C@@H](NC(=O)Nc1nc2nccc(-c3ccc(OC)cc3)n2n1)C(C)C [Example 091] | 210 |
| COc1ccc(-c2ccnc3nc(NC(=O)N[C@H](C(=O)NCC4CCCCC4)C(C)C)nn23)cc1 [Example 092] | 200 |
| COc1ccc(-c2ccnc3nc(NC(=O)N[C@H](C(=O)N(C)Cc4ccccc4)C(C)C)nn23)cc1 [Example 093] | 700 |
| COc1ccc(-c2ccnc3nc(NC(=O)N[C@H](C(=O)NC4CCCCC4)C(C)C)nn23)cc1 [Example 094] | 200 |
| COCCCNC(=O)[C@@H](NC(=O)Nc1nc2nccc(-c3ccc(OC)cc3)n2n1)C(C)C [Example 095] | 630 |
| COCCNC(=O)[C@@H](NC(=O)Nc1nc2nccc(-c3ccc(OC)cc3)n2n1)C(C)C [Example 096] | 550 |
| COCCN(CCOC)C(=O)[C@@H](NC(=O)Nc1nc2nccc(-c3ccc(OC)cc3)n2n1)C(C)C [Example 097] | 470 |
| COC(=O)[C@H](C)NC(=O)[C@@H](NC(=O)Nc1nc2nccc(-c3ccc(OC)cc3)n2n1)C(C)C [Example 098] | 140 |
| COc1ccc(-c2ccnc3nc(NC(=O)NCC4CCCCC4)nn23)cc1 [Example 099] | 440 |
| CCC(C)NC(=O)Nc1nc2nccc(-c3ccc(OC)cc3)n2n1 (stereo not drawn) [Example 100] | 320 |
| COc1ccc(-c2ccnc3nc(NC(=O)NCCCc4ccccc4)nn23)cc1 [Example 102] | 190 |
| COc1ccc(-c2ccnc3nc(NC(=O)NCc4ccncc4)nn23)cc1 [Example 103] | 620 |
| COc1ccc(-c2ccnc3nc(NC(=O)NCCc4cccnc4)nn23)cc1 [Example 104] | 430 |
| COCCCNC(=O)Nc1nc2nccc(-c3ccc(OC)cc3)n2n1 [Example 106] | 510 |
| CC(C)COc1cccc(-c2ccnc3nc(NC(=O)NC4CCCCC4)nn23)c1 [Example 108] | 130 |
| COc1ccc(-c2ccnc3nc(NC(=O)NCCC(=O)OC(C)(C)C)nn23)cc1 [Example 109] | 110 |
| COc1ccc(-c2ccnc3nc(NC(=O)NCC(=O)OC(C)(C)C)nn23)cc1 [Example 110] | 790 |
| COc1ccc(-c2ccnc3nc(NC(=O)N[C@@H](Cc4ccccc4)C(=O)OC(C)(C)C)nn23)cc1 [Example 112] | 850 |
| O=C(Nc1nc2nccc(-c3cccc(OCc4ccccc4)c3)n2n1)NC1CCCCC1 [Example 115] | 600 |
| COc1ccc(-c2ccnc3nc(NC(=O)N[C@H](C(=O)NCCc4ccncc4)C(C)C)nn23)cc1 [Example 116] | 570 |
| COc1ccc(-c2ccnc3nc(NC(=O)N[C@@H](C)C(=O)Nc4ccccc4)nn23)cc1 [Example 117] | 190 |
| COc1ccc(-c2ccnc3nc(NC(=O)N[C@@H](C)C(=O)N4CCOCC4)nn23)cc1 [Example 118] | 610 |
| COc1ccc(-c2ccnc3nc(NC(=O)N[C@@H](C)C(=O)NCc4ccccc4)nn23)cc1 [Example 119] | 210 |
| COc1ccc(-c2ccnc3nc(NC(=O)N[C@@H](C)C(=O)NC4CCCCC4)nn23)cc1 [Example 120] | 250 |
| COc1ccc(-c2ccnc3nc(NC(=O)N[C@@H](C)C(=O)NCC4CCCCC4)nn23)cc1 [Example 121] | 170 |

| Compound | EC20 (concentration necessary for suppressing 20% of the expression level of MHC class I molecules) [nM] |
| --- | --- |
| COC(=O)[C@H](C)NC(=O)[C@H](C)NC(=O)Nc1nc2nccc(-c3ccc(OC)cc3)n2n1 [Example 122] | 340 |
| COc1ccc(-c2ccnc3nc(NC(=O)N[C@@H](C)C(=O)N4CCN(C)CC4)nn23)cc1 [Example 123] | 480 |
| COc1ccc(-c2ccnc3nc(NC(=O)N[C@@H](C)C(=O)NCc4ccccn4)nn23)cc1 [Example 124] | 210 |
| COc1ccc(-c2ccnc3nc(NC(=O)N[C@@H](C)C(=O)NCCN4CCCCC4)nn23)cc1.Cl [Example 125] | 820 |
| COC(=O)[C@@H](C)NC(=O)Nc1nc2nccc(-c3ccc(OC)cc3)n2n1 [Example 126] | 320 |
| COc1ccc(-c2ccnc3nc(NC(=O)N[C@@H](C)CCc4ccccc4)nn23)cc1 [Example 127] | 80 |
| CCC(CC)NC(=O)Nc1nc2nccc(-c3ccc(OC)cc3)n2n1 [Example 128] | 540 |
| COc1ccc(-c2ccnc3nc(NC(=O)N[C@@H](C)c4ccc(Br)cc4)nn23)cc1 [Example 129] | 180 |
| CC[C@H](NC(=O)Nc1nc2nccc(-c3ccc(OC)cc3)n2n1)c1ccccc1 [Example 130] | 130 |
| COc1ccc(-c2ccnc3nc(NC(=O)N[C@@H](C)c4ccc(OC)cc4)nn23)cc1 [Example 133] | 190 |
| COc1ccc(-c2ccnc3nc(NC(=O)N[C@H]4CCCc5ccccc54)nn23)cc1 [Example 134] | 50 |
| CCOC(=O)N1CCC(NC(=O)Nc2nc3nccc(-c4ccc(OC)cc4)n3n2)CC1 [Example 138] | 150 |
| COc1ccc(-c2ccnc3nc(NC(=O)N[C@@H](C)c4ccc([N+](=O)[O-])cc4)nn23)cc1 [Example 139] | 130 |
| COc1ccc(-c2ccnc3nc(NC(=O)NC4C5CC6CC(C5)CC4C6)nn23)cc1 (stereo not drawn) [Example 143] | 740 |
| COc1ccc(-c2ccnc3nc(NC(=O)NCC(=O)Nc4ccccc4)nn23)cc1 [Example 144] | 460 |
| CC[C@H](NC(=O)Nc1nc2nccc(-c3ccc(OC)cc3)n2n1)C(=O)Nc1ccccc1 [Example 148] | 260 |
| CC[C@H](NC(=O)Nc1nc2nccc(-c3ccc(OC)cc3)n2n1)C(=O)N1CCOCC1 [Example 149] | 630 |
| CC[C@H](NC(=O)Nc1nc2nccc(-c3ccc(OC)cc3)n2n1)C(=O)NC(C)C(=O)OC (stereo partly drawn) [Example 150] | 710 |
| CCC[C@H](NC(=O)Nc1nc2nccc(-c3ccc(OC)cc3)n2n1)C(=O)Nc1ccccc1 [Example 151] | 220 |
| CCC[C@H](NC(=O)Nc1nc2nccc(-c3ccc(OC)cc3)n2n1)C(=O)N1CCOCC1 [Example 152] | 780 |
| COc1ccc(-c2ccnc3nc(NC(=O)NCCC(=O)Nc4ccccc4)nn23)cc1 [Example 156] | 50 |
| C[C@H](NC(=O)Nc1nc2nccc(-c3cccs3)n2n1)c1ccccc1 [Example 165] | 300 |
| COC(=O)C1CCC(NC(=O)Nc2nc3nccc(-c4ccc(OC)cc4)n3n2)CC1 (stereo not drawn) [Example 167] | 200 |
| COC(=O)C1CCCC(NC(=O)Nc2nc3nccc(-c4ccc(OC)cc4)n3n2)C1 (stereo not drawn) [Example 168] | 670 |
| COc1ccc(-c2ccnc3nc(NC(=O)NC4CCC(C(=O)N(C)C)CC4)nn23)cc1 (stereo not drawn) [Example 169] | 660 |
| O=C(Nc1nc2nccc(-c3cccc(OCc4cccnc4)c3)n2n1)NC1CCCCC1 [Example 170] | 250 |
| O=C(Nc1nc2nccc(-c3cccc(OCc4ccncc4)c3)n2n1)NC1CCCCC1 [Example 171] | 290 |

Reference: patent publication US7598244B2, “[1,2,4]triazolo[1,5,a]pyrimidin-2-ylurea derivative and use thereof” (Nippon Kayaku Kabushiki Kaisha, priority 2003, dated 2009)
